From patent US20250302815A1, “PROTEIN TYROSINE PHOSPHATASE TARGETING LIGANDS” (CALICO LIFE SCIENCES LLC, priority 2021, published 2025)

Tests used:
PTPN2 (B16F10.4 cells) = target: T1, PTPN2 (B16F10.4 cells) (Mus musculus, UniProt Q06180); test: HiBiT Degradation B16F10.4 PTPN2; format: cell-based; details: 24.0 hours
T1 construct: HiBiT; host or cells: B16F10.4
T1 sequence (Q06180 1-406): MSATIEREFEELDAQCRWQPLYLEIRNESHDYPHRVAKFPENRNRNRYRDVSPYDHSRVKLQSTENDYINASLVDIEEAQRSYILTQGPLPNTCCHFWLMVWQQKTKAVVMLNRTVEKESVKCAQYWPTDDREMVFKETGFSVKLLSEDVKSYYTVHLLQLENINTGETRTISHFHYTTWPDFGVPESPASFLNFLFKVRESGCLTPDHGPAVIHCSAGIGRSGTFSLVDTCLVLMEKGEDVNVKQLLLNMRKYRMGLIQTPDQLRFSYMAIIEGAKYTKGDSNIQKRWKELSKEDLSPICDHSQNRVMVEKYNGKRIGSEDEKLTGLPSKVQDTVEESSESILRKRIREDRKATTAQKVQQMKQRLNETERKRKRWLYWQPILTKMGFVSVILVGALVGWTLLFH

[1] = target: T2, PTPN2 (HiBIT-PTPN2 in 293T.109 cells) (Homo sapiens, UniProt P17706); test: HiBiT Degradation 293T.109 PTPN2 (Nano-Glo HiBiT Lytic Assay); format: cell-based; details: 24.0 hours
T2 construct: expressed in transfected cells; host or cells: 293T.109 (293T WT from ATCC)
T2 sequence (P17706 1-415): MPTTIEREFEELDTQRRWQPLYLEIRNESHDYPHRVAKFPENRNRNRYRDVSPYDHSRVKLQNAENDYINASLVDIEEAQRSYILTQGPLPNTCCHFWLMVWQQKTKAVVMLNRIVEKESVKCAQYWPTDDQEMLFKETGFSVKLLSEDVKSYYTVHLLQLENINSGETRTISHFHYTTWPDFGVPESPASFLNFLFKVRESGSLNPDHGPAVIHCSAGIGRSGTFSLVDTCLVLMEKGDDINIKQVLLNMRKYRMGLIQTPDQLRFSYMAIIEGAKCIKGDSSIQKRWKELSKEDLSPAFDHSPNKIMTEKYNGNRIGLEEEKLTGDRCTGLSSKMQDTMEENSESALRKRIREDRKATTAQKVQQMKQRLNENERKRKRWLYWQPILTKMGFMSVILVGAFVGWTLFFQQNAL
Procedure, shortened: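 293T.109 cells with ectopic N-terminal HiBiT-tagged PTPN2 (5000/well) exposed to compounds for 24 h at 37 °C, 5% CO2; 11-point half-log titration from 10 μM top, duplicates. Remaining HiBiT-PTPN2 read as luminescence with Nano-Glo HiBiT lytic reagent, normalised to untreated cells (0%) and reagent-free wells.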

Row | Structure (SMILES) | DC50 (PTPN2 (B16F10.4 cells)) [nM] | DC50 [1] [nM]
1 | CN(C(=O)C1CCN(C(=O)CNc2cccc3c2CN(C2CCC(=O)NC2=O)C3=O)CC1)c1cccc(CS(=O)(=O)N2CC[C@@H](Nc3cccc(-c4sc(C(=O)O)c(OCC(=O)O)c4Cl)c3)CC2(C)C)c1 (stereo partly drawn) [Example 66, 3-(carboxymethoxy)-4-chloro-5-(3-(((4R)-1-((3-(1-((2-(2,6-dioxopiperidin-3-yl)-1-oxoisoindolin-4-yl)glycyl)-N-methylpiperidine-4-carboxamido)benzyl)sulfonyl)-2,2-dimethylpiperidin-4-yl)amino)phenyl)thiophene-2-carboxylic acid] | ≥ 1000 | 200 to 1000
2 | CN(C(=O)C1CCN(C(=O)CNc2cccc3c2CN(C2CCC(=O)NC2=O)C3=O)CC1)c1cccc(CS(=O)(=O)N2CC[C@H](Nc3cccc(-c4sc(C(=O)O)c(OCC(=O)O)c4Cl)c3)CC2(C)C)c1 (stereo partly drawn) [Example 67, 3-(carboxymethoxy)-4-chloro-5-(3-(((4S)-1-((3-(1-((2-(2,6-dioxopiperidin-3-yl)-1-oxoisoindolin-4-yl)glycyl)-N-methylpiperidine-4-carboxamido)benzyl)sulfonyl)-2,2-dimethylpiperidin-4-yl)amino)phenyl)thiophene-2-carboxylic acid] | ≥ 1000 | 200 to 1000
3 | CN(C(=O)CCN1CCC(Nc2cccc3c2CN(C2CCC(=O)NC2=O)C3=O)CC1)c1cccc(CS(=O)(=O)N2CCC(Nc3cccc(-c4sc(C(=O)O)c(OCC(=O)O)c4Cl)c3)CC2(C)C)c1 (centres unmarked) [Example 71, 3-(carboxymethoxy)-4-chloro-5-(3-((1-((3-(3-(4-((2-(2,6-dioxopiperidin-3-yl)-1-oxoisoindolin-4-yl)amino)piperidin-1-yl)-N-methylpropanamido)benzyl)sulfonyl)-2,2-dimethylpiperidin-4-yl)amino)phenyl)thiophene-2-carboxylic acid] | ≥ 1000 | 50 to 200
4 | O=C(O)COc1c(C(=O)O)sc(-c2cccc(NC3CCN(S(=O)(=O)Cc4cccc(NC(=O)C5CCN(C(=O)CNc6cccc7c6CN(C6CCC(=O)NC6=O)C7=O)CC5)c4F)CC3)c2)c1Cl (centres unmarked) [Example 73, 3-(carboxymethoxy)-4-chloro-5-(3-((1-((3-(1-((2-(2,6-dioxopiperidin-3-yl)-1-oxoisoindolin-4-yl)glycyl)piperidine-4-carboxamido)-2-fluorobenzyl)sulfonyl)piperidin-4-yl)amino)phenyl)thiophene-2-carboxylic acid] | ≥ 1000 | 50 to 200
5 | CC1(C)C[C@@H](Nc2cccc(-c3sc(C(=O)O)c(OCC(=O)O)c3Cl)c2)CCN1S(=O)(=O)Cc1cccc(NC(=O)C2CN(C(=O)COc3cccc4c3CN(C3CCC(=O)NC3=O)C4=O)C2)c1 (some centres unmarked) [Example 74] | ≥ 1000 | < 50
6 | O=C(O)COc1c(C(=O)O)sc(-c2cccc(NC3CCN(S(=O)(=O)Cc4cccc(NC(=O)C5CN(C(=O)CNc6cccc7c6CN(C6CCC(=O)NC6=O)C7=O)C5)c4F)CC3)c2)c1Cl (centres unmarked) [Example 75] | ≥ 1000 | < 50
7 | CC1(C)C[C@@H](Nc2cccc(-c3sc(C(=O)O)c(OCC(=O)O)c3Cl)c2)CCN1S(=O)(=O)Cc1cccc(NC(=O)N2CCC(Oc3ccc4c(c3)CN(C3CCC(=O)NC3=O)C4=O)CC2)c1 (some centres unmarked) [Example 76] | ≥ 1000 | 200 to 1000
8 | O=C(O)COc1c(C(=O)O)sc(-c2cccc(NC3CCN(S(=O)(=O)Cc4ccc(F)c(NC(=O)C5CCN(C(=O)CNc6cccc7c6CN(C6CCC(=O)NC6=O)C7=O)CC5)c4)CC3)c2)c1Cl (centres unmarked) [Example 77] | ≥ 1000 | 50 to 200
9 | O=C(O)COc1c(C(=O)O)sc(-c2cccc(NC3CCN(S(=O)(=O)Cc4ccc(F)c(NC(=O)C5CN(C(=O)CNc6cccc7c6CN(C6CCC(=O)NC6=O)C7=O)C5)c4)CC3)c2)c1Cl (centres unmarked) [Example 78] | ≥ 1000 | < 50

The remaining lines, values ahead:

Row | DC50 (PTPN2 (B16F10.4 cells)) [nM] | DC50 [1] [nM] | Structure (SMILES)
10 | 200 to 1000 | 200 to 1000 | CC1(C)C[C@@H](Nc2cccc(-c3sc(C(=O)O)c(OCC(=O)O)c3Cl)c2)CCN1S(=O)(=O)Cc1cccc(NC(=O)C2CCN(C(=O)CCc3cccc4c3CN(C3CCC(=O)NC3=O)C4=O)CC2)c1 (stereo partly drawn) [Example 61, 3-(carboxymethoxy)-4-chloro-5-(3-(((4S)-1-((3-(1-(3-(2-(2,6-dioxopiperidin-3-yl)-1-oxoisoindolin-4-yl)propanoyl)piperidine-4-carboxamido)benzyl)sulfonyl)-2,2-dimethylpiperidin-4-yl)amino)phenyl)thiophene-2-carboxylic acid]
11 | 200 to 1000 | 50 to 200 | CC1(C)C[C@@H](Nc2cccc(-c3sc(C(=O)O)c(OCC(=O)O)c3Cl)c2)CCN1S(=O)(=O)Cc1cccc(NC(=O)N2CCN(C(=O)CNc3cccc4c3CN(C3CCC(=O)NC3=O)C4=O)CC2)c1 (stereo partly drawn) [Example 62, 3-(carboxymethoxy)-4-chloro-5-(3-(((4S)-1-((3-(4-((2-(2,6-dioxopiperidin-3-yl)-1-oxoisoindolin-4-yl)glycyl)piperazine-1-carboxamido)benzyl)sulfonyl)-2,2-dimethylpiperidin-4-yl)amino)phenyl)thiophene-2-carboxylic acid]
12 | 200 to 1000 | 50 to 200 | CC1(C)C[C@@H](Nc2cccc(-c3sc(C(=O)O)c(OCC(=O)O)c3Cl)c2)CCN1S(=O)(=O)Cc1cccc(NC(=O)C2CCN(C(=O)COc3cccc4c3CN(C3CCC(=O)NC3=O)C4=O)CC2)c1 (stereo partly drawn) [Example 63, 3-(carboxymethoxy)-4-chloro-5-(3-(((4S)-1-((3-(1-(2-((2-(2,6-dioxopiperidin-3-yl)-1-oxoisoindolin-4-yl)oxy)acetyl)piperidine-4-carboxamido)benzyl)sulfonyl)-2,2-dimethylpiperidin-4-yl)amino)phenyl)thiophene-2-carboxylic acid]
13 | 200 to 1000 | 200 to 1000 | CC1(C)C[C@@H](Nc2cccc(-c3sc(C(=O)O)c(OCC(=O)O)c3Cl)c2)CCN1S(=O)(=O)Cc1cccc(NC(=O)N2CCN(C(=O)CCc3cccc4c3CN(C3CCC(=O)NC3=O)C4=O)CC2)c1 (some centres unmarked) [Example 64]
14 | 200 to 1000 | 200 to 1000 | O=C(O)COc1c(C(=O)O)sc(-c2cccc(NC3CCN(S(=O)(=O)Cc4cccc(NC(=O)N5CCC(Oc6cccc7c6CN(C6CCC(=O)NC6=O)C7=O)CC5)c4)CC3)c2)c1Cl (centres unmarked) [Example 65]
15 | 50 to 200 | 50 to 200 | CC1(C)C[C@@H](Nc2cccc(-c3sc(C(=O)O)c(OCC(=O)O)c3Cl)c2)CCN1S(=O)(=O)Cc1cccc(NC(=O)N2CCC(c3ccc4c(c3)oc(=O)n4C3CCC(=O)NC3=O)CC2)c1 (stereo partly drawn) [Example 68, 3-(carboxymethoxy)-4-chloro-5-[3-[[(4S)-1-[[3-[[4-[3-(2,6-dioxo-3-piperidyl)-2-oxo-1,3-benzoxazol-6-yl]piperidine-1-carbonyl]amino]phenyl]methylsulfonyl]-2,2-dimethyl-4-piperidyl]amino]phenyl]thiophene-2-carboxylic acid]
16 | 50 to 200 | < 50 | Cn1c(=O)n(C2CCC(=O)NC2=O)c2ccc(C3CCN(CC(=O)Nc4cccc(CS(=O)(=O)N5CCC(Nc6cccc(-c7sc(C(=O)O)c(OCC(=O)O)c7Cl)c6)CC5(C)C)c4)CC3)cc21 [Example 69, 3-(carboxymethoxy)-4-chloro-5-[3-[[(4S)-1-[[3-[2-[4-[1-(2,6-dioxo-3-piperidyl)-3-methyl-2-oxo-benzimidazol-S-yl]-1-piperidyl]acetyl]amino]phenyl]methylsulfonyl]-2,2-dimethyl-4-piperidyl]amino]phenyl]thiophene-2-carboxylic acid]
17 | 200 to 1000 | 50 to 200 | CC1(C)C[C@@H](Nc2cccc(-c3sc(C(=O)O)c(OCC(=O)O)c3Cl)c2)CCN1S(=O)(=O)Cc1cccc(NC(=O)CN2CCC(c3ccc4c(c3)oc(=O)n4C3CCC(=O)NC3=O)CC2)c1 (stereo partly drawn) [Example 70, 3-(Carboxymethoxy)-4-chloro-5-[3-[[(4S)-1-[[3-[[2-[4-[3-(2,6-dioxo-3-piperidyl)-2-oxo-1,3-benzoxazol-6-yl]-1-piperidyl]acetyl]amino]phenyl]methylsulfonyl]-2,2-dimethyl-4-piperidyl]amino]phenyl]thiophene-2-carboxylic acid]
18 | 50 to 200 | 50 to 200 | CC1(C)C[C@@H](Nc2cccc(-c3sc(C(=O)O)c(OCC(=O)O)c3Cl)c2)CCN1S(=O)(=O)Cc1cccc(NC(=O)N2CCC(Oc3cccc4c3CN(C3CCC(=O)NC3=O)C4=O)CC2)c1 (some centres unmarked) [Example 72]
19 | 50 to 200 | < 50 | Cn1c(=O)n(C2CCC(=O)NC2=O)c2ccc(NC3CN(C(=O)Nc4cccc(CS(=O)(=O)N5CC[C@H](Nc6cccc(-c7sc(C(=O)O)c(OCC(=O)O)c7Cl)c6)CC5(C)C)c4)C3)cc21 (some centres unmarked) [Example 79]
